Values quoted from earlier work, collected in patent publication EP0266549A1, “Cinnamyl amines, process for their preparation and pharmaceutical compositions containing them” (BOEHRINGER MANNHEIM ITALIA S.P.A., priority 1986, dated 1988).
Structures can show the parent of a compound that is named as a salt.

Conditions: in vitro; Arch. lnt. Pharmacology, 272, 283, 1984; cited from earlier work

SMILES: Fc1ccc(C(c2ccc(F)cc2)N2CCN(C/C=C/c3ccccc3)CC2)cc1 [Flunarizine HCl]
- activity as "radical scavenger": very active
